Source: PubChem BioAssay (NCI)
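Method: 48-hour compound exposure of cells in 96-well plates, five concentrations, linear interpolation of endpoints. TGI marks complete inhibition of growth.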 Where a SMILES comes first, the peptide text is derived from it. [ ]: non-standard residue; d: D form. The star is where a group is joined. ξ: configuration not given here. ξF = NC(Cc1ccccc1)C(=O)O; Cbz = O=C(OCc1ccccc1)*; Aib = CC(C)(N)C(=O)O

Tests used:
Experiment in all cases: growth of human tumour cells (NCI), 48 h
786-0 renal = tested on: 786-0 renal
A498 renal = tested on: A498 renal
A549 NSCLC = tested on: A549 NSCLC
ACHN renal = tested on: ACHN renal
CAKI-1 renal = tested on: CAKI-1 renal
CCRF-CEM leukemia = tested on: CCRF-CEM leukemia
COLO 205 colon = tested on: COLO 205 colon
DU-145 prostate = tested on: DU-145 prostate
EKVX NSCLC = tested on: EKVX NSCLC
HCC-2998 colon = tested on: HCC-2998 colon
HCT-116 colon = tested on: HCT-116 colon
HCT-15 colon = tested on: HCT-15 colon
HL-60(TB) leukemia = tested on: HL-60(TB) leukemia
HOP-62 NSCLC = tested on: HOP-62 NSCLC
HOP-92 NSCLC = tested on: HOP-92 NSCLC
HT29 colon = tested on: HT29 colon
IGROV1 ovarian = tested on: IGROV1 ovarian
K-562 leukemia = tested on: K-562 leukemia
KM12 colon = tested on: KM12 colon
LOX IMVI melanoma = tested on: LOX IMVI melanoma
M14 melanoma = tested on: M14 melanoma
MALME-3M melanoma = tested on: MALME-3M melanoma
MCF7 breast = tested on: MCF7 breast
MDA-MB-231 breast = tested on: MDA-MB-231 breast
MDA-MB-435 = tested on: MDA-MB-435
MDA-N = tested on: MDA-N
MOLT-4 leukemia = tested on: MOLT-4 leukemia
NCI-H226 lung = tested on: NCI-H226 lung
NCI-H23 lung = tested on: NCI-H23 lung
NCI-H522 lung = tested on: NCI-H522 lung
NCI/ADR-RES ovarian = tested on: NCI/ADR-RES ovarian
OVCAR-3 ovarian = tested on: OVCAR-3 ovarian
OVCAR-4 ovarian = tested on: OVCAR-4 ovarian
OVCAR-8 ovarian = tested on: OVCAR-8 ovarian
PC-3 prostate = tested on: PC-3 prostate
RPMI-8226 leukemia = tested on: RPMI-8226 leukemia
RXF 393 renal = tested on: RXF 393 renal
SF-295 CNS = tested on: SF-295 CNS
SF-539 CNS = tested on: SF-539 CNS
SK-MEL-2 melanoma = tested on: SK-MEL-2 melanoma
SK-MEL-28 melanoma = tested on: SK-MEL-28 melanoma
SK-MEL-5 melanoma = tested on: SK-MEL-5 melanoma
SK-OV-3 ovarian = tested on: SK-OV-3 ovarian
SN12C renal = tested on: SN12C renal
SNB-19 CNS = tested on: SNB-19 CNS
SNB-75 CNS = tested on: SNB-75 CNS
SW-620 colon = tested on: SW-620 colon
T-47D breast = tested on: T-47D breast
TK-10 renal = tested on: TK-10 renal
U251 CNS = tested on: U251 CNS
UACC-257 melanoma = tested on: UACC-257 melanoma
UACC-62 melanoma = tested on: UACC-62 melanoma
UO-31 renal = tested on: UO-31 renal
NCI-H460 lung = tested on: NCI-H460 lung
OVCAR-5 ovarian = tested on: OVCAR-5 ovarian
SF-268 CNS = tested on: SF-268 CNS
SR leukemia = tested on: SR leukemia
HS 578T breast = tested on: HS 578T breast

O=C(NCCCl)Nc1cccnc1
TGI (786-0 renal): 39.9 µM
TGI (A498 renal): 40.5 µM
TGI (A549 NSCLC): 99.5 µM
TGI (ACHN renal): 27.4 µM
TGI (CAKI-1 renal): 36.1 µM
TGI (CCRF-CEM leukemia): > 100 µM
TGI (COLO 205 colon): 51.3 µM
TGI (DU-145 prostate): 29.4 µM
TGI (EKVX NSCLC): 38.3 µM
TGI (HCC-2998 colon): 37.5 µM
TGI (HCT-116 colon): 32 µM
TGI (HCT-15 colon): 66.7 µM
TGI (HL-60(TB) leukemia): > 100 µM
TGI (HOP-62 NSCLC): > 100 µM
TGI (HOP-92 NSCLC): 53.3 µM
TGI (HT29 colon): 34.9 µM
TGI (IGROV1 ovarian): 35.6 µM
TGI (K-562 leukemia): > 100 µM
TGI (KM12 colon): 41.5 µM
TGI (LOX IMVI melanoma): 55.3 µM
TGI (M14 melanoma): > 100 µM
TGI (MALME-3M melanoma): 7.4 µM
TGI (MCF7 breast): > 100 µM
TGI (MDA-MB-231 breast): 33.3 µM
TGI (MDA-MB-435): > 100 µM
TGI (MDA-N): 67.9 µM
TGI (MOLT-4 leukemia): 81.8 µM
TGI (NCI-H226 lung): 30.5 µM
TGI (NCI-H23 lung): 46.2 µM
TGI (NCI-H522 lung): 62.1 µM
TGI (NCI/ADR-RES ovarian): 47.7 µM
TGI (OVCAR-3 ovarian): 83.2 µM
TGI (OVCAR-4 ovarian): 90.7 µM
TGI (OVCAR-8 ovarian): 27.9 µM
TGI (PC-3 prostate): > 100 µM
TGI (RPMI-8226 leukemia): 86.6 µM
TGI (RXF 393 renal): > 100 µM
TGI (SF-295 CNS): 94.5 µM
TGI (SF-539 CNS): > 100 µM
TGI (SK-MEL-2 melanoma): > 100 µM
TGI (SK-MEL-28 melanoma): > 100 µM
TGI (SK-MEL-5 melanoma): > 100 µM
TGI (SK-OV-3 ovarian): 43.5 µM
TGI (SN12C renal): 64.7 µM
TGI (SNB-19 CNS): 80.4 µM
TGI (SNB-75 CNS): 63.1 µM
TGI (SW-620 colon): > 100 µM
TGI (T-47D breast): 59.5 µM
TGI (TK-10 renal): 27.7 µM
TGI (U251 CNS): > 100 µM
TGI (UACC-257 melanoma): 72.2 µM
TGI (UACC-62 melanoma): > 100 µM
TGI (UO-31 renal): 50.3 µM

NC(=O)C1CCCN1C(=O)C(N)Cc1ccccc1 (stereo not drawn) (H-Phe-Pro-NH2; configuration not given here)
TGI (A498 renal): > 100 µM
TGI (A549 NSCLC): > 100 µM
TGI (ACHN renal): > 100 µM
TGI (CAKI-1 renal): > 100 µM
TGI (CCRF-CEM leukemia): > 100 µM
TGI (COLO 205 colon): > 100 µM
TGI (DU-145 prostate): > 100 µM
TGI (EKVX NSCLC): > 100 µM
TGI (HCC-2998 colon): > 100 µM
TGI (HCT-116 colon): > 100 µM
TGI (HCT-15 colon): > 100 µM
TGI (HL-60(TB) leukemia): > 100 µM
TGI (HOP-62 NSCLC): > 100 µM
TGI (HT29 colon): > 100 µM
TGI (IGROV1 ovarian): > 100 µM
TGI (K-562 leukemia): > 100 µM
TGI (LOX IMVI melanoma): > 100 µM
TGI (M14 melanoma): > 100 µM
TGI (MALME-3M melanoma): > 100 µM
TGI (MCF7 breast): > 100 µM
TGI (MDA-MB-231 breast): > 100 µM
TGI (MDA-MB-435): > 100 µM
TGI (MDA-N): > 100 µM
TGI (MOLT-4 leukemia): > 100 µM
TGI (NCI-H460 lung): > 100 µM
TGI (NCI-H522 lung): > 100 µM
TGI (NCI/ADR-RES ovarian): > 100 µM
TGI (OVCAR-3 ovarian): > 100 µM
TGI (OVCAR-4 ovarian): > 100 µM
TGI (OVCAR-5 ovarian): > 100 µM
TGI (OVCAR-8 ovarian): > 100 µM
TGI (PC-3 prostate): > 100 µM
TGI (RPMI-8226 leukemia): > 100 µM
TGI (SF-268 CNS): > 100 µM
TGI (SF-295 CNS): > 100 µM
TGI (SK-MEL-28 melanoma): > 100 µM
TGI (SK-MEL-5 melanoma): > 100 µM
TGI (SNB-19 CNS): > 100 µM
TGI (SR leukemia): > 100 µM
TGI (SW-620 colon): > 100 µM
TGI (T-47D breast): > 100 µM
TGI (TK-10 renal): > 100 µM
TGI (U251 CNS): > 100 µM
TGI (UACC-62 melanoma): > 100 µM
TGI (UO-31 renal): > 100 µM

CCOC(=O)CNC(=O)C(Cc1ccccc1)NC(=O)C(C)(C)NC(=O)OCc1ccccc1 (stereo not drawn) (Cbz-[Aib]-[ξF]-Gly-OEt)
TGI (A498 renal): > 100 µM
TGI (A549 NSCLC): > 100 µM
TGI (ACHN renal): > 100 µM
TGI (CAKI-1 renal): > 100 µM
TGI (CCRF-CEM leukemia): > 100 µM
TGI (COLO 205 colon): > 100 µM
TGI (DU-145 prostate): > 100 µM
TGI (EKVX NSCLC): > 100 µM
TGI (HCC-2998 colon): > 100 µM
TGI (HCT-116 colon): > 100 µM
TGI (HCT-15 colon): > 100 µM
TGI (HL-60(TB) leukemia): > 100 µM
TGI (HOP-62 NSCLC): > 100 µM
TGI (HOP-92 NSCLC): > 100 µM
TGI (HT29 colon): > 100 µM
TGI (IGROV1 ovarian): > 100 µM
TGI (K-562 leukemia): > 100 µM
TGI (LOX IMVI melanoma): > 100 µM
TGI (M14 melanoma): > 100 µM
TGI (MALME-3M melanoma): 36.2 µM
TGI (MCF7 breast): > 100 µM
TGI (MDA-MB-231 breast): > 100 µM
TGI (MDA-MB-435): > 100 µM
TGI (MDA-N): > 100 µM
TGI (MOLT-4 leukemia): > 100 µM
TGI (NCI-H522 lung): > 100 µM
TGI (NCI/ADR-RES ovarian): > 100 µM
TGI (OVCAR-3 ovarian): 78.2 µM
TGI (OVCAR-4 ovarian): > 100 µM
TGI (OVCAR-5 ovarian): > 100 µM
TGI (OVCAR-8 ovarian): > 100 µM
TGI (PC-3 prostate): > 100 µM
TGI (RPMI-8226 leukemia): > 100 µM
TGI (SF-268 CNS): > 100 µM
TGI (SF-295 CNS): > 100 µM
TGI (SK-MEL-28 melanoma): 33.2 µM
TGI (SK-MEL-5 melanoma): > 100 µM
TGI (SNB-19 CNS): > 100 µM
TGI (SR leukemia): > 100 µM
TGI (SW-620 colon): > 100 µM
TGI (T-47D breast): > 100 µM
TGI (TK-10 renal): > 100 µM
TGI (U251 CNS): > 100 µM
TGI (UACC-257 melanoma): > 100 µM
TGI (UACC-62 melanoma): 40.9 µM
TGI (UO-31 renal): > 100 µM

CC1(CO)COS(=O)OC1 (stereo not drawn)
TGI (A498 renal): > 100 µM
TGI (A549 NSCLC): > 100 µM
TGI (ACHN renal): > 100 µM
TGI (CCRF-CEM leukemia): > 100 µM
TGI (COLO 205 colon): > 100 µM
TGI (DU-145 prostate): > 100 µM
TGI (HCC-2998 colon): > 100 µM
TGI (HCT-116 colon): > 100 µM
TGI (HCT-15 colon): > 100 µM
TGI (HOP-92 NSCLC): > 100 µM
TGI (HS 578T breast): > 100 µM
TGI (HT29 colon): > 100 µM
TGI (KM12 colon): > 100 µM
TGI (LOX IMVI melanoma): > 100 µM
TGI (MCF7 breast): > 100 µM
TGI (MDA-MB-231 breast): > 100 µM
TGI (MDA-MB-435): > 100 µM
TGI (MDA-N): > 100 µM
TGI (MOLT-4 leukemia): > 100 µM
TGI (NCI-H226 lung): > 100 µM
TGI (NCI-H23 lung): > 100 µM
TGI (NCI-H460 lung): > 100 µM
TGI (NCI-H522 lung): > 100 µM
TGI (NCI/ADR-RES ovarian): > 100 µM
TGI (OVCAR-3 ovarian): > 100 µM
TGI (OVCAR-4 ovarian): > 100 µM
TGI (OVCAR-8 ovarian): > 100 µM
TGI (PC-3 prostate): > 100 µM
TGI (RXF 393 renal): > 100 µM
TGI (SF-268 CNS): > 100 µM
TGI (SF-295 CNS): > 100 µM
TGI (SK-MEL-28 melanoma): > 100 µM
TGI (SK-MEL-5 melanoma): > 100 µM
TGI (SK-OV-3 ovarian): > 100 µM
TGI (SN12C renal): > 100 µM
TGI (SNB-19 CNS): > 100 µM
TGI (SNB-75 CNS): > 100 µM
TGI (SR leukemia): > 100 µM
TGI (SW-620 colon): > 100 µM
TGI (T-47D breast): > 100 µM
TGI (TK-10 renal): > 100 µM
TGI (U251 CNS): > 100 µM
TGI (UACC-257 melanoma): > 100 µM
TGI (UO-31 renal): > 100 µM
